Laboratory results as given in US9943502B2, “Lung cancer adjuvant therapy” (Texas Tech University System, priority 2014, dated 2018).
“Also recorded” adds a separate entry of the source.

Tests used:
A549 cells [1] = assay: Analysis of cell cycle by flow cytometry; assay type: cell-based; conditions: 25 μM cisplatin and/or 0.5 nM LMB, 24 and 48 h
Protocol: Analysis of cell cycle by flow cytometry. The cells were harvested after 24 and 48 h of treatment. […] Cell cycle analysis was conducted by a Guava EasyCyte™ Flow Cytometer (Millipore) as previously described^32, 33. Each sample was run in triplicate and each experiment was repeated three times.

A549CRM1− cells = assay: Cell viability assay (MTT); assay type: cell-based; conditions: FIG. 4A, P<0.05
Protocol: Cell viability assay. Cell viability was evaluated using the MTT (3-(4,5-dimethylthiazol-2-yl)-2,5-diphenyltetrazolium bromide) assay as previously described^29, 33. […] Studies were performed independently in triplicate.

A549 cells [2] = assay: Array-based SYBR Green RT-PCR (RT2 Profiler PCR array, Human Cancer Drug Targets, 84 genes); assay type: cell-based
Protocol: Array-based SYBR® Green RT-PCR. Constitutive gene expression profiling was performed using the RT^2 Profiler™ PCR array to analyze the expression of 84 genes involving in cancer signal pathways (Human Cancer Drug Targets, Qiagen) based on manufacturer's instructions and our previous publications^33, 34. Studies were performed in duplicate for each group.

A549 cells [3] = assay: Western blot analyses of PARP1, p21 and survivin; assay type: cell-based; conditions: 24 and 48 h, P<0.05
Protocol: Western blot analyses. […] Immunoblotting was performed using different primary antibodies and α-tubulin as the internal control.

[4] = system: lung cancer A549 cells xenografts; assay: Treatment of mouse xenografts: tumor growth; assay type: in vivo, female athymic mice; conditions: intra-tumoral injection three times per week; Cis 2.5 mg/Kg, LMB 2 μg/Kg
Protocol: Xenograft animal model. The handling of animals was in accordance with the Institutional Animal Care and Use Committee. Female athymic mice, 7-8 weeks of age and 23.5 g in weight (Charles River Laboratory) received subcutaneous injection of 1×10^6 A549 or A549CRM1− cells in the lower flank (n=8/group). Tumor volume was measured by a digital caliper (Thermo Fisher Scientific). The major longitudinal diameter (length) and the major transverse diameter (width) were determined. Tumor volume was calculated based on caliper measurements by the following formula: Tumor volume=½ (length×width^2).
(§1) Treatment of mouse xenografts. Thirty-two female athymic mice, 7-8 weeks of age and 23.5 g in weight (strain code 088, Charles River Laboratory) were each injected subcutaneously with 1×10^6 lung cancer A549 cells in the lower flank. […] All injections were carried out for three times per week. Mice body weights and tumor sizes were measured three times per week.

[5] = Treatment of mouse xenografts: body weight and side effects; assay type: in vivo, female athymic mice; conditions: two weeks after treatment; without deteriorating behavior and health condition
Protocol: as §1

[6] = in vivo; cited from earlier work
[7] = system: normal bronchial epithelial cells; conditions: cited from earlier work
lung cancer cells = conditions: cited from earlier work
phospho-p53 (Thr55) = phospho-p53 (Thr55) protein expression in BEAS-2B cells after NNK exposure; assay type: cell-based, human
Protocol: (§2) Human normal lung epithelial cells BEAS-2B with NNK exposure/transformation or CRM1 stable overexpression. Human normal bronchial epithelial cell line BEAS-2B was obtained from American Type Culture Collection (ATCC). (1) For short-term NNK exposure, BEAS-2B cells were treated with 0, 10, 75, or 150 μM NNK for 24 and 72 h in triplicate as described in our previous study^29; (2) BEAS-2BNNK, an in vitro transformed cell model derived from BEAS-2B, was generated by exposure to NNK (15 μM) for 24 h and then continuously sub-cultured for 9 passages. […] Similarly, BEAS-2B was transfected with vector control for comparison. BEAS-2B, BEAS-2BNNK, and BEAS-2BCRM1+ cells were cultured in LHC-9 medium (Invitrogen) containing 100 U penicillin/mL and 100 μg/mL streptomycin.

lung tissues = assay: Mouse model of NNK-induced lung tumors, Western blot of lung tumors; assay type: in vivo, FVB/N mice; conditions: NNK-treated mice, P<0.01
Protocol: Mouse model and NNK-induced lung tumors. Male FVB/N mice are an intermediately susceptible strain with regard to spontaneous lung tumor formation and have been used for studies of NNK-induced lung tumorigenesis^31. Mice were each given two intra-peritoneal injections of 3 mg NNK per week (NNK-treated group, n=8) or 0.9% saline (vehicle control group, n=8). From each group, mice were sacrificed at 32-weeks after the last NNK- or saline-treatment. Lung tissues were fresh frozen or formalin-fixed and paraffin-embedded.

CRM1 = CRM1 expression (qRT-PCR, Western blot) in NNK-transformed BEAS-2B cells; assay type: cell-based, human; conditions: BEAS-2BNNK, P<0.05
Protocol: as §2
Isolation of total RNA and quantitative real-time PCR (qRT-PCR). Total RNA was isolated using an RiNeasy® plus mini kit (Qiagen) following the manufacturer protocol. One-Step RT-PCR kit with SYBR green was used for amplification of total RNA (75 ng) by following the manufacturer's protocol (BioRad) and our recent publication^32. […] Threshold cycle number (Ct value) was analyzed using CFX Manager Software (Bio-Rad). The Ct value of CRM1 was normalized to the Ct value of GAPDH from same sample and the fold change in the expression was calculated by using the ΔΔCt method. […]

BEAS-2B cells = assay: Soft agar colony assay of NNK-transformed BEAS-2B cells; assay type: cell-based, human; conditions: NNK 15 μM for 24 h, then 9 passages (BEAS-2BNNK), P<0.05
Protocol: as §2
Soft agar colony assay (Anchorage independent growth assay). Cells were suspended at 5×10^4 cells/mL for BEAS-2B, BEAS-2BNNK, and BEAS-2BCRM1+ or 2×10^4 cells/mL for A549 and A549CRM1− cells in growth medium containing 0.35% agar. Cell suspension was added to a 6-well tissue culture plate pre-coated with 0.7% solid agar. After 9-11 days of incubation (9 days for A549 and 11 days for BEAS-2B), the number of colonies/microscope area (6 randomly selected areas/well) was counted and their sizes were analyzed using cell staining (0.005% Crystal Violet) by microscope. This study was done in triplicate.

[8] = cisplatin 10 and 25 μM with or without 0.5 nM LMB

N.N.[Cl][Pt][Cl] [Cis, cisplatin]
cell cycle distribution compared with the control (A549 cells [1]): significantly higher proportion of cells in S and G2/M phases
sensitivity of A549CRM1− cells compared with A549 cells (A549CRM1− cells): even more sensitive
expression level of AURKA, AURKB, CDK1, HIF1A, MDM4, PLK1, PLK4, and TNKS compared to the control (A549 cells [2]; 25 μM cisplatin, P<0.05): significantly decreased expression level
expression of CTSB, GRB2, MDM2, and NF-κB compared to the control (A549 cells [2]; 25 μM cisplatin, P<0.05): increased expression
NF-κB expression (A549 cells [2]; A549 cells): increased expression of NF-κB
survivin expression level compared to controls (A549 cells [3]): significantly decreased
PARP1 protein expression compared to vehicle-treated cells (A549 cells [3]; [8]): significantly increased in a dose-response manner
p21 protein expression compared to vehicle-treated cells (A549 cells [3]; [8]): significantly increased in a dose-response manner
tumor growth compared to the vehicle-treated control [4]: significant decrease in tumor growth; also recorded: significantly delayed tumor growth
body weight for mice [5]: started to decrease gradually

CCC(=C/[C@H](C)C/C=C/C(C)=C/[C@@H](C)C(=O)[C@@H](C)[C@H](O)[C@@H](C)C/C(C)=C/C(=O)O)/C=C/[C@@H]1OC(=O)C=C[C@@H]1C [LMB, leptomycin B]
cell cycle distribution compared with the control (A549 cells [1]): did not alter the cell cycle distribution
side effects in the phase I clinical trial [6]: malaise and anorexia
effects on normal bronchial epithelial cells [7]: minimal effects
gene expression profile compared to the control group (A549 cells [2]; 0.5 nM LMB): No significant difference
tumor growth compared to the vehicle-treated control [4]: growth curves followed a similar trend
effect on lung cancer cells (lung cancer cells): inhibit lung cancer cell growth and induce cytotoxicity

CN(CCCC(=O)c1cccnc1)N=O [NNK, 4-(methylnitrosamino)-1-(3-pyridyl)-1-butanone]
phosphorylated-p53 (p-p53) at Thr55 in NNK-transformed cells (phospho-p53 (Thr55); BEAS-2BNNK cells, FIG. 2B): overexpressed
protein expression levels of p-p53 at Thr55 compared to vehicle-treated BEAS-2B cells (phospho-p53 (Thr55); NNK 10, 75 and 150 μM for 24 and 72 h, P<0.05): dose-dependent decrease
CRM1 expression in lung tumor tissues compared with normal tissues (lung tissues; 32 weeks after last treatment): increased CRM1 expression
p-p53 at Thr55 in lung tumors compared with normal lung tissues (lung tissues): significant increase
CRM1 expression at the mRNA level compared to vehicle-treated BEAS-2B cells (CRM1): 2.6 folds
CRM1 expression at the protein level compared to vehicle-treated BEAS-2B cells (CRM1): ~1.5 folds
soft agar colony number and colony size compared with vehicle-treated BEAS-2B cells (BEAS-2B cells): significant increase in both colony number and colony size
